US20110039812A1, “N-ALKYLCARBONYL-D-AMINO HYDROXYALKYL ESTER COMPOUNDS AND THEIR USE” (priority 2006, published 2011)

Columns and labels:
oral cavity = test: Oral cavity test of tablets placed in the back of the mouth; assay type: in vivo, human
Procedure: The NACHE were also tested in the oral cavity using these methods: a) placement of 2 mg of the crystalline chemical on the dorsal surface of the tongue, b) incorporation of 2 mg of NACHE into a rapidly-distintegrating tablet of 60 mg weight, and placement of the tablet on the caudal-dorsal surface of the tongue, c) placement of a 0.3 mL aliquot of a 5 mg/mL solution of a NACHE in a 50% ethanol-distilled water solution, and d) delivery of a 5 mg/mL solution of a NACHE in a 50% ethanol-distilled water solution into the oral cavity using a hand-activated mouth spray dispenser. The tests in the oral cavity were important because many cooling agents used in confectionery and comestibles have disagreeable tastes of bitterness, harshness or burning qualities that limit their utility in such items as candy, mints, mouthwashes, mouth fresheners, and cough syrups.
Tablets of CPS-154 were prepared. To weighed samples of about 200 mg of CPS-154 was added varying amounts of Ludipress® (BASF, Germany) to give CPS-154 concentrations of 2.5, 3. 5, 10 and 10% by wt. The two ingredients were then thoroughly mixed in a mortar and pestle. To this mixture when then added 5 to 7 mL of 10% ethanol −90% distilled water solution. Using an eye dropper or a pipette, fixed volumes of the solution was placed on wax paper and dried under a heat source. The tablets were then sized and weighed.
Using the above formulation methods, three doses of 1, 2 and 4 mg per application were examined. […] The onset effect was usually within 30 seconds of application. […] Also, the effects of menthol were short-lived, on the order 8 to 12 minutes, versus a 20 to 30 minute period or longer.

[1] = system: dorsal surface of the tongue; settings: average for 6 subjects, after 30 seconds; cited from earlier work
skin above the upper lip = test: Cooling sensation bioassay: ointment applied to skin above the upper lip; assay type: in vivo, human
From the text: A reliable place for topical application is the skin above the upper lip (above the vermilion border of the lips), on the philtrum, lateral to the philtrum until the nasolabial folds, and on the lower nostrils (subnasale). This part of the face is known to be densely innervated with cold receptors, second only to the surfaces of the eyeball and anogenitalia. A second location is on or below the malar eminence (cheekbone). The skin above the cheekbone is thicker than above the lips, and therefore has a higher threshold for activation. At both loci, tingling, cool and cold sensations in the skin may be experienced and rated for time of onset and intensity.
The intensity of the subjective skin sensation is rated as 0, 1, 2 or 3 with 0 as no change, 1 as slight coolness, cold, or tingling, 2 as clear-cut signal of coolness, cold, or tingling, and 3 as robust cooling or cold. The intervals for recording sensations are 5 to 10 minutes, until two successive zeroes are obtained. The results (shown in FIG. 1) are averaged values of 4 to 6 separate trials in the same individual. The data are plotted using SigmaPlot (Systat Software, Point Richmond Calif.) and a smoothing function with a negative eponential was used for analysis and statistical fit of the results. […]

cough [2] = test: Powder on the tongue of two cigar smokers with cough; assay type: in vivo, human
From the text: Two males, were inveterate cigar smokers consuming 3 to 5 cigars per day. They both had frequent bouts of dry, non-productive, hacking coughs. At night, there were episodes of insomnia characterized by difficulties in breathing, an oppressive pressure on the chest and throat, and subsequent awakening with sensations of choking. During the day, a frequent and persistent sensation was that of tickling, irritative feelings in the back of the throat that led to coughing.
In 10 trials per subject, 2 mg of 92% pure powder of CPS-154 was placed on the mid-portion of the tongue of these two subjects. Both subjects reported relief from the desire to cough within 1 minute after application. Sensations of robust coolness in the back of the throat was noted and lasted for 15 to 20 minutes. Applications of similar amounts of powdered sugar were not effective, but the placebo could be clearly distinguished from the active compound because of the absence of cooling sensations.

[3] = system: asthmatic coughing attacks; test: Tablets as needed in a subject with asthma; assay type: in vivo, human
From the text: A person with a documented 31-year history of asthma attacks volunteered to test one of the compounds of Formula 1. They were extremely sensitive to agents such as tobacco smoke, dust, pollen, odors, down/woolen materials, house cleansing products, pets, and sudden change of air temperature and reacted with violent coughing, mucus secretions, wheezing, choking, and shortness of breath. At the time of this trial, they were taking these medications for their condition: theophylline, Allegra®, Advair®, Intal®, and Singulair®. They were given 20 tablets of CPS-154, synthesized as described in Example 3, and instructed to take one on an as-needed basis.

viral cough = test: Tablets as needed in a subject with viral cough; assay type: in vivo, human; settings: 2.0 mg tablets as needed
Procedure: A person has severe allergies and also developed a cough after a cruise trip overseas. Upon visit to a physician, they were diagnosed with a “viral cough” and prescribed codeine in a syrup. They volunteered to try CPS-154 tablets and was supplied with 15 tablets stored in a flip top plastic box, each containing 2.0 mg of CPS-154, in a 4% wt/wt lactose matrix (Ludipress®). The subject was instructed to take one tablet on an as-needed basis, with a preferred interval of 3 to 4 hours between tablets.

cough [4] = test: Orally-disintegrating tablet in the back of the mouth, anti-tussive action; assay type: in vivo; settings: 40 to 60 mg Ludipress tablet containing 1 to 5 mg
From the text: Especially favored in this invention is the formulation of the NACHE of Formula 1, into an orally-disintegrating tablet.

| SMILES | quality and site of cooling sensations (oral cavity; tablets, 2 or 4 mg dose) | Threshold (amount producing cooling sensations on the tongue), average [1] [µg] | duration of action of cooling on the skin of the upper lip (skin above the upper lip; Aquaphor ointment 0.5 and 1% wt/vol, 50 to 80 mg) | potency / cooling activity on the skin of the upper lip (comparison, FIG. 1) (skin above the upper lip; ointment on upper lip skin) | dissolution of tablets in the back of the mouth (oral cavity; Ludipress tablets) | activity in the oral cavity, D-analog versus L-equivalent (oral cavity; tablets) | onset of cooling effect after application (oral cavity; tablets, 2 or 4 mg dose) [s] | time to relief from the desire to cough (cough [2]; 2 mg of 92% pure powder on mid-portion of the tongue, 2 subjects) [min] | time the desire to cough was removed (cough [2]; after 8 applications, continued smoking of cigars) | recurrence of asthmatic coughing attacks ([3]; continued use of tablets as needed) | side-effects ([3]; one tablet, asthma subject) | effect on cough severity (viral cough) | anti-tussive action (cough [4]) |
| --- | --- | --- | --- | --- | --- | --- | --- | --- | --- | --- | --- | --- | --- |
| CC1CCC(C(C)C)C(O)C1 (single isomer, unassigned; (-)) [Menthol, (−)-menthol, reference compound] | cooling primarily in the nasopharynx and less in the oral cavity | 0.25 |  |  |  |  |  |  |  |  |  |  |  |
| CC(C)[C@@H]1CC[C@@H](C)C[C@H]1C(=O)N[C@H](C)C(=O)OCCCO [CPS-154, (R)-2-[((1R,2S,5R)-2-isopropyl-5-methyl-cyclohexanecarbonyl)-amino]-propionic acid 3-hydroxy-propyl ester] | pleasant and robust cooling sensations on the tongue, extending down to the back of throat |  | more than 1 hour | comparable to its alkyl ester analog, CPS-369 | dissolved within a matter of seconds | clearly more active than the L-equivalent | ≤ 30 | ≤ 1 | at least 3 days | have not recurred with any severity for six months | did not sense any build up of sputum or other side-effects | less severe | robust anti-tussive action for several hours |
